The results in this text go back to US20230286973A1, “PROTEIN SECRETION INHIBITORS” (KEZAR LIFE SCIENCES, priority 2020, published 2023).

The subject of data set [1] is IL-2-FL/Gaussia Luciferase. In words: Dox Induced IL2-FL-Gluc Assay. Conditions: for IC50: 24 hr Dox induction, 293FRT/TO cells, read-out: 24 hr Dox Inducible IL2FLGluc 293FRT/TO: Mean IC50; for 24 hr Dox Inducible IL2FLGluc 293FRT/TO: IL2/PD1: ratio of IL2FLGluc IC50 to PD1ssGluc IC50. It is filed as cell-based. Summed up:
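A hygromycin- and blasticidin-resistant 293 T-REx clone carrying inducible IL-2–Gaussia luciferase (full-length IL-2, residues 1-153) serves as the cell system. After overnight plating, the cells get test compounds together with doxycycline in DMSO/media and are incubated at 37° C, 5% CO2.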

A short description of data set [2]: Liver Microsome Stability Assay (mouse). Conditions: mouse liver microsomes, with NADPH, 1.0 uM compound. In general terms: Microsomes from liver hold many membrane-bound enzymes, among them those of drug oxidation.
Description: (§1) Stability of a compound was assessed in the presence of liver microsomes from various sources—mouse, rat, monkey and human liver microsomes. 1.0 uM compound, 0.4% DMSO in 0.1 M Potassium Phosphate with 1.0 mg/mL liver microsomes, were incubated at 37° C. with or without 1 mM NADPH. The samples were quenched at 0, and 30 minutes.
Data set [3] can be described thus: Liver Microsome Stability Assay (rat). The note with it: rat liver microsomes, with NADPH, 1.0 uM compound.
Description: as §1
Data set [4] concerns PD1-ss+10aa/Gaussia Luciferase. In words: Dox-Induced PD1-ss-Gluc Assay. The format is cell-based. The note with it: 24 hr Dox induction, 293FRT/TO cells, read-out: 24 hr Dox Inducible PD1ssGluc 293FRT/TO: Mean IC50. In outline: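 The cell line was made by transfecting Flp-In 293 T-REx cells with a PD1 signal sequence+10aa–Gaussia luciferase fusion under T-REx control and selecting with hygromycin and blasticidin. Cells were seeded, and next day compound plus doxycycline was added at 37 °C, 5% CO2.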

The test system of data set [5] is multiple myeloma cell line NCI-H929. In words: H929 Cell Viability Assay. The format is cell-based, human. The note with it: Homo sapiens, NCI-H929, 48 h, NCI-H929 cells, Celltiter-Glo. Summed up:
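A 48-hour compound treatment of cells in 10% FBS RPMI medium was followed by luciferase-based viability quantification.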
Background: ATP-based viability assays read luminescence as a measure of living cells.

Data set [6] concerns HER3-ss+4aa/Gaussia Luciferase. In words: Dox-Induced Her3-ss-Gluc Assay. It is filed as cell-based. Conditions: 24 hr Dox induction, 293FRT/TO cells, read-out: 24 hr Dox Inducible Her3(ss + 4)Gluc 293FRT/TO: Mean IC50. In outline: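 Doxycycline-inducible HER3 signal sequence+4aa/Gaussia luciferase construct, stably integrated in Flp-In 293 T-REx cells; compound dilutions applied with doxycycline at 37° C., 5% CO2.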

Data set [7] deals with TNFα-FL/Gaussia Luciferase. In words: Dox Induced TNFα-FL-Gluc Assay. The format is cell-based. Conditions: for IC50: 24 hr Dox induction, 293FRT/TO cells, read-out: 24 hr Dox Inducible TNFaFLGluc 293FRT/TO: Mean IC50; for 24 hr Dox Inducible TNFaFLGluc 293FRT/TO: TNF/PD1: ratio of TNFaFLGluc IC50 to PD1ssGluc IC50. Summed up: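 Hygromycin/blasticidin-selected Flp-In 293 T-REx cells, TNFα-FL/Gaussia luciferase fusion under T-REx control; overnight plating, then compound in DMSO/media with doxycycline at 37 °C, 5% CO2; stereo-undefined structures tested as mixtures.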

The nature of data set [8]: Liver Microsome Stability Assay (monkey). The note with it: monkey liver microsomes, with NADPH, 1.0 uM compound.
Description: as §1
Data set [9] concerns multiple myeloma cell line U266B1. In words: U266 Cell Viability Assay. The note with it: Homo sapiens, U-266, 48 h, U266B1 cells, Celltiter-Glo. It is filed as cell-based, human. In outline: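 After growth in serum-supplemented RPMI 1640, cells received serially diluted compound in DMSO/media and were kept 48 hours before a CellTiter-Glo luminescence readout.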
Data set [10] in a line: Liver Microsome Stability Assay (human). The note with it: human liver microsomes, with NADPH, 1.0 uM compound.
Description: as §1
[11] abbreviates: '<=>' given where both are I.A.

Broadly, the EC50 is the midpoint of the concentration-response curve.

Where two headings read alike, the source gives them in different places.

As for `O=C(Nc1nc(/C=C/c2cn3c(n2)CCC3)cs1)c1cccn1Cc1ccnc(F)c1` [Compound B62, (E)-N-(4-(2-(6,7-dihydro-5H-pyrrolo[1,2-a]imidazol-2-yl)vinyl)thiazol-2-yl)-1-((2-fluoropyridin-4-yl)methyl)-1H-pyrrole-2-carboxamide], the IC50 was greater than 25000 nM in data set [1], 321 nM in data set [4], greater than 25000 nM in [6] and greater than 25000 nM in data set [7]. Further, the “24 hr Dox Inducible IL2FLGluc 293FRT/TO: IL2/PD1” value in [1] was greater than 78. Moreover, the “Liver Microsome Stability (Multiple Species): Mouse - % Remaining after 30 min w/NADPH” value in data set [2] is given as 11.5%. For the same molecule, the “Liver Microsome Stability (Multiple Species): Rat - % Remaining after 30 min w/NADPH” value in data set [3] turned out to be 2.51%. In addition, the half-maximal effective concentration (EC50) was greater than 24300 nM in data set [5] and greater than 25000 nM in [9]. For the same molecule, the “24 hr Dox Inducible TNFaFLGluc 293FRT/TO: TNF/PD1” value in data set [7] is greater than 77.9. In data set [8], the “Liver Microsome Stability (Multiple Species): Monkey - % Remaining after 30 min w/NADPH” value worked out at 2.64%. The “Liver Microsome Stability (Multiple Species): Human - % Remaining after 30 min w/NADPH” value in data set [10] was found to be 0.2%.

As to `CN(C)CCOc1ccc(N2CCC[C@@H]2c2csc(NC(=O)c3cccn3Cc3ccnc(F)c3)n2)cc1` [Compound A104, (R)-N-(4-(1-(4-(2-(dimethylamino)ethoxy)phenyl)pyrrolidin-2-yl)thiazol-2-yl)-1-((2-fluoropyridin-4-yl)methyl)-1H-pyrrole-2-carboxamide], the IC50 in data set [1] came out at 435 nM; in data set [4] it was 153 nM; in data set [6] it was 355 nM; in data set [7], 4030 nM. In addition, the “24 hr Dox Inducible IL2FLGluc 293FRT/TO: IL2/PD1” value in data set [1] turned out to be 2.8. Further, the “Liver Microsome Stability (Multiple Species): Mouse - % Remaining after 30 min w/NADPH” value in data set [2] is 16.5%. For the same molecule, in data set [3], the “Liver Microsome Stability (Multiple Species): Rat - % Remaining after 30 min w/NADPH” value came out at 27.9%. The figures for the 50% effective concentration (EC50) in [5] and in data set [9] were 3170 nM and 5760 nM, respectively. Also, in data set [7], the “24 hr Dox Inducible TNFaFLGluc 293FRT/TO: TNF/PD1” value came out at 26.3. Besides, the “Liver Microsome Stability (Multiple Species): Monkey - % Remaining after 30 min w/NADPH” value in [8] amounted to 51.6%. In addition, the “Liver Microsome Stability (Multiple Species): Human - % Remaining after 30 min w/NADPH” value in [10] stood at 68.8%.

Regarding `CC(=O)Nc1ccc(N2CCC[C@@H]2c2csc(NC(=O)c3cccn3C[C@@H](C)CC#N)n2)cc1` [Compound C117, N-(4-((R)-1-(4-acetamidophenyl)pyrrolidin-2-yl)thiazol-2-yl)-1-((S)-3-cyano-2-methylpropyl)-1H-pyrrole-2-carboxamide], the IC50 in data set [1] (mean) stood at 54.3 nM; in [4] (mean), 25.6 nM; in data set [6] (mean) it was 49.6 nM; in [7] (mean) it was 275 nM. Also, the “24 hr Dox Inducible IL2FLGluc 293FRT/TO: IL2/PD1” value in data set [1] (setting [11]) came to 2.1. Also, the “Liver Microsome Stability (Multiple Species): Mouse - % Remaining after 30 min w/NADPH” value in [2] came out at 7.53%. For the same molecule, in [3], the “Liver Microsome Stability (Multiple Species): Rat - % Remaining after 30 min w/NADPH” value amounted to 16.5%. Moreover, the figures for the EC50 in data set [5] and in data set [9] were 1130 nM and greater than 25000 nM, respectively. Further, in [7] (setting [11]), the “24 hr Dox Inducible TNFaFLGluc 293FRT/TO: TNF/PD1” value was determined as 10.7. The “Liver Microsome Stability (Multiple Species): Monkey - % Remaining after 30 min w/NADPH” value in data set [8] amounted to 4.1%. Besides, in data set [10], the “Liver Microsome Stability (Multiple Species): Human - % Remaining after 30 min w/NADPH” value was 9.81%.

Regarding `O=C(Nc1nc([C@H]2CCCN2c2ccc(C(F)(F)F)cc2)cs1)c1cccn1Cc1ccncc1` [Compound A28, (R)-1-(pyridin-4-ylmethyl)-N-(4-(1-(4-(trifluoromethyl)phenyl)pyrrolidin-2-yl)thiazol-2-yl)-1H-pyrrole-2-carboxamide], the IC50 in data set [1] is 10.8 nM; in data set [4], 5.73 nM; in data set [6], 11.6 nM; in data set [7], 137 nM. The “24 hr Dox Inducible IL2FLGluc 293FRT/TO: IL2/PD1” value in data set [1] is on record as 1.9. For the same molecule, the “Liver Microsome Stability (Multiple Species): Mouse - % Remaining after 30 min w/NADPH” value in data set [2] turned out to be 30.3%. In addition, in data set [3], the “Liver Microsome Stability (Multiple Species): Rat - % Remaining after 30 min w/NADPH” value worked out at 51.5%. Also, the values for the EC50 in data set [5] and in data set [9] were 251 nM and 10100 nM, respectively. For the same molecule, the “24 hr Dox Inducible TNFaFLGluc 293FRT/TO: TNF/PD1” value in data set [7] is listed as 23.9. In addition, the “Liver Microsome Stability (Multiple Species): Monkey - % Remaining after 30 min w/NADPH” value in [8] was found to be 3.97%. In data set [10], the “Liver Microsome Stability (Multiple Species): Human - % Remaining after 30 min w/NADPH” value amounted to 16.4%.
